{"source": "patent US9750677B2", "about": "“Use of metal complexes which are mimetics of SOD as food agents and as cosmetics” (Universitat de València, priority 2014, dated 2017)", "test_system": "Medaka embryos", "experiment": "Survival analysis using Medaka fish embryos, mortality at 72 hours in H2O2", "assay_type": "in vivo, Medaka (Oryzias latipes)", "conditions": "stage 8 embryos pre-treated 4 days with 100 μM vitamin C, then 72 hours in 22.5 mM H2O2; for mortality, mean (± standard error in text): 6 replicates", "experimental": "Individual adults (strain Cab, Carolina Biological Supply, (North Carolina)), were held in tanks with continuous water flow at 27° C., and a photoperiod of 14 hours of light and 10 hours of darkness. The fish were fed twice a day with Artemia nauplii, which were hatched daily from commercial Sanders® cysts, and with dry food once per day.\nFertilized eggs were collected daily, deposited in Yamamoto solution (0.13 M NaCl, 2.7 mM KCl, 1.8 mM CaCl2 and 0.24 mM NaHCO3, pH 7.3) (Yamamoto T., Medaka (killifish): Biology and strains. 1975, Tokyo: Keigaku Pub. Co), and were kept in the incubator at 26° C. The embryo stage was determined according to the description of Iwamatsu (Iwamatsu T., Stages of normal development in the medaka Oryzias latipes. Mech Dev. 2004, Vol. 121, pages 605-618).\nMedaka embryos that were in stage 8 (early morula stage, Iwamatsu, 2004) were separated into 2 groups of 60 embryos and one group of 30 embryos. A group of 60 embryos were treated for 4 days with Pytren-4Q+Mn dissolved in Yamamoto solution at a concentration of 250 μM. The other group of 60 embryos were incubated for 4 days in Yamamoto solution. This group was used as a negative control. The group of 30 embryos, positive control group, were treated for 4 days with a Yamamoto solution of vitamin C, an antioxidant compound, at a concentration of 100 μM. After 4 days of incubation, the embryos were washed with Yamamoto solution. The groups of 60 embryos were separated one by one into two groups of 30 embryos. The embryos of all the groups were individually placed into the wells of 96-well plates, each well containing 200 μl of Yamamoto solution with H2O2, at different concentrations depending on the extension of incubation time at which mortality was observed. […] Thirty embryos of each initial group of 60 embryos and the 30 embryos of the group treated with vitamin C were treated with H2O2 Yamamoto solution at a concentration of 22.5 mM. […] Thirty embryos of each initial group of 60 embryos were treated with H2O2 Yamamoto solution at a concentration of 7.5 mM. […]", "note": "Values joined by “and” are separate entries in the source; they are usually repeats but may differ in a detail not shown here. Identical values can stand only once.", "data": [{"smiles": "O=C1O[C@H]([C@@H](O)CO)C(O)=C1O", "note": "[vitamin C]", "values": [{"measurement": "mortality, mean (± standard error in text)", "result": "25.99±5.25", "unit": "%"}, {"measurement": "mortality, mean (± standard error in text)", "setting": "listed as Vitamin C", "result": 25.99, "unit": "%"}, {"measurement": "mortality, single replicates", "setting": "30 embryos per replicate", "result": "14.3% and 20.8% (2×) and 40.63% and 43.75% and 15.63%"}]}]}
